# Experimental data from ChEMBL document CHEMBL5291721, “A preclinical secondary pharmacology resource illuminates target-adverse drug reaction associations of marketed drugs” (Nat Commun, 2023).
# *1 amine or outer side, *2 acyl side, *3 side chain or, on linkers, in order; H or OH if unused. Where a SMILES comes first, the peptide text is derived from it. Bridges are numbered along the chain shown (N, C = ends). [ ]: non-standard residue; d: D form. The star is where a group is joined. hTyr(3S-OH,4S-OH,3'-OSO3H) = N[C@H](C(=O)O)[C@H](O)[C@@H](O)c1ccc(O)c(OS(=O)(=O)O)c1; Orn(4R-OH,5R-OH) = O=C([C@H](C[C@@H](O)[C@@H](O)N[*:3])N[*:1])[*:2]; Pro(3S-OH,4S-Me) = C[C@H]1CN[C@H](C(=O)O)[C@H]1O; X1 = CCCCCOc1ccc(-c2cc(-c3ccc(C(=O)*)cc3)no2)cc1; Gln(3R-OH) = NC(=O)C[C@@H](O)[C@H](N)C(=O)O; Hyp = O=C(O)[C@@H]1C[C@@H](O)CN1
# Experiments:
# Acetylcholinesterase = Acetylcholinesterase (Homo sapiens, UniProt P22303); format: functional
# Acetylcholinesterase, sequence (P22303 whole entry): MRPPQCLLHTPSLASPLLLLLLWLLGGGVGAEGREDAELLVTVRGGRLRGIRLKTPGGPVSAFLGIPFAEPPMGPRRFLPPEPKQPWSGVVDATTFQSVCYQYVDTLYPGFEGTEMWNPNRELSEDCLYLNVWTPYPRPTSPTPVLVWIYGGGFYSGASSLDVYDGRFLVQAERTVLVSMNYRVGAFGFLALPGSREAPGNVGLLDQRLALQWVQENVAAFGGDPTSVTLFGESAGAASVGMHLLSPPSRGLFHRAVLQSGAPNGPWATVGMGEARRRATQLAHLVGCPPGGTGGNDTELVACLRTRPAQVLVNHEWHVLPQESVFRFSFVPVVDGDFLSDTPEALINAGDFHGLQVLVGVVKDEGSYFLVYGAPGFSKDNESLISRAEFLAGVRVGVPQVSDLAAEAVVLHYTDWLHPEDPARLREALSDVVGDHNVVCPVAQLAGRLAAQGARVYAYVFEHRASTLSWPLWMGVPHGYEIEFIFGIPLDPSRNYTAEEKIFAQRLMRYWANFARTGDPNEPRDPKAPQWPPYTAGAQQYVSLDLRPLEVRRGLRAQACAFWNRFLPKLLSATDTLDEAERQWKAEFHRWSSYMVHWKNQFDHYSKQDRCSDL
# D(1A) dopamine receptor = D(1A) dopamine receptor (Homo sapiens, UniProt P21728)
# D(1A) dopamine receptor, sequence (P21728 whole entry): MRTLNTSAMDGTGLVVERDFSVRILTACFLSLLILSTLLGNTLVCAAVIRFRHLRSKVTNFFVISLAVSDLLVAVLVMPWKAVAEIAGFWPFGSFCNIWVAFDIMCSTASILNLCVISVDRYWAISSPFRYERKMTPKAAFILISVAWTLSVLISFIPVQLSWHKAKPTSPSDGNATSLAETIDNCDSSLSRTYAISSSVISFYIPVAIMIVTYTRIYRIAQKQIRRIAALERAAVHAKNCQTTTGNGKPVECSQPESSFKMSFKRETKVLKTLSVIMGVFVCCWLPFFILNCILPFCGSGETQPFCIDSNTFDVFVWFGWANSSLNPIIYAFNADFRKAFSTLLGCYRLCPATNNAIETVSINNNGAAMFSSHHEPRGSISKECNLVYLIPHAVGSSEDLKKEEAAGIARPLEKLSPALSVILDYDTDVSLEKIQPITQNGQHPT
# D(3) dopamine receptor = D(3) dopamine receptor (Homo sapiens, UniProt P35462)
# Prothrombin = Prothrombin (Homo sapiens, UniProt P00734); format: functional
# Histamine H3 receptor = Histamine H3 receptor (Homo sapiens, UniProt Q9Y5N1)
# [1] = molecular target: T1, 5-hydroxytryptamine receptor 1A (Homo sapiens, UniProt P08908)
# T1 sequence (P08908 whole entry): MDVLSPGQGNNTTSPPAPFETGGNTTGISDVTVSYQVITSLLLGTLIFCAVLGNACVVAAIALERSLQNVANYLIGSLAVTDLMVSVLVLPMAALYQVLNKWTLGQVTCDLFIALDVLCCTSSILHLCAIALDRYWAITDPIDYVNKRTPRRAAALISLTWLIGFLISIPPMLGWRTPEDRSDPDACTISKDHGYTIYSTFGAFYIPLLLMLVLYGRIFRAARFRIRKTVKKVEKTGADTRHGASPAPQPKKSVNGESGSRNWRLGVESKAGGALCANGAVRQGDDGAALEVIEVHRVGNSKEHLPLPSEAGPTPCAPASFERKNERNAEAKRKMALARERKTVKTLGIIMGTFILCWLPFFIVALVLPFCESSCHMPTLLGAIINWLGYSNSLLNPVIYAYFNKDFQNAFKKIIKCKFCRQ
# [2] = molecular target: 5-hydroxytryptamine receptor 2B (Homo sapiens, UniProt P41595); format: functional, cell-based
# 5-hydroxytryptamine receptor 2B, sequence (P41595 whole entry): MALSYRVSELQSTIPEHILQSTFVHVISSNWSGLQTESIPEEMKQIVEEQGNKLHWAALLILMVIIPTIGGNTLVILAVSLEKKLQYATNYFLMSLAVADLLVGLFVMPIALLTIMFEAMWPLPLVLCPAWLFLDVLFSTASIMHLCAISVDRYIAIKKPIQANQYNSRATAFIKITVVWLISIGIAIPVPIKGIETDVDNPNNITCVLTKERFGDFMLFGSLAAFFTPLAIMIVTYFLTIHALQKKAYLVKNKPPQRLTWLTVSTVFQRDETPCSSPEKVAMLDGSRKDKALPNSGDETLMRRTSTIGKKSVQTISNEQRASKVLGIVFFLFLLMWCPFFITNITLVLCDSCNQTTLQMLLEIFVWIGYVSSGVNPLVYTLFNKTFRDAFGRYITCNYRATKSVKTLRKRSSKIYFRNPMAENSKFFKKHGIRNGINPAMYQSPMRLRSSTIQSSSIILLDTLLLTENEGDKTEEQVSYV
# [3] = molecular target: T2, Amine oxidase [flavin-containing] A (Homo sapiens, UniProt P21397); format: functional
# T2 sequence (P21397 whole entry): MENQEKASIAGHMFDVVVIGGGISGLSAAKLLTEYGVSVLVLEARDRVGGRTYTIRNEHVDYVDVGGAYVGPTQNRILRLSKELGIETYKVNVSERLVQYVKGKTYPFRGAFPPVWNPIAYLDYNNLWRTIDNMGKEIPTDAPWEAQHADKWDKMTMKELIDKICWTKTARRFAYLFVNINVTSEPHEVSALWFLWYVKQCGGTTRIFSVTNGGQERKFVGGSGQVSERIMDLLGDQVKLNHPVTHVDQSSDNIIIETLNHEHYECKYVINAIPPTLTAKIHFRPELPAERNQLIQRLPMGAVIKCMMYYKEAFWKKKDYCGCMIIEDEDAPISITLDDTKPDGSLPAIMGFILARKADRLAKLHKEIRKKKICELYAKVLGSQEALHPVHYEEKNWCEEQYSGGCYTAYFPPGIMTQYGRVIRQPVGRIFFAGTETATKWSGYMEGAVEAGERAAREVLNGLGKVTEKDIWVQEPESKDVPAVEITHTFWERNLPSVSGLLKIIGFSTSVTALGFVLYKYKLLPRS
# Mu-type opioid receptor = Mu-type opioid receptor (Homo sapiens, UniProt P35372)
# Mu-type opioid receptor, sequence (P35372 whole entry): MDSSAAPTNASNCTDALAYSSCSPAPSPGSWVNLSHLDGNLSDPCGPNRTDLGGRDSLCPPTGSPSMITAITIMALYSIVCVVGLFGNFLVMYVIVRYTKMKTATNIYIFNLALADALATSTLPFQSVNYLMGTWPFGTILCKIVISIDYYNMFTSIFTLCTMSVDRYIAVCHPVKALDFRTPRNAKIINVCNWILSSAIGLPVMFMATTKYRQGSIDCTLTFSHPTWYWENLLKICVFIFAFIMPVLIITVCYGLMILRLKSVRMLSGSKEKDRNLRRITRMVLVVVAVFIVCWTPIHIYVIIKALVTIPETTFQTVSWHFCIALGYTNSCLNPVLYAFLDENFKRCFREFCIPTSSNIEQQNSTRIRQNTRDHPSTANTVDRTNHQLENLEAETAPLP
# [4] = molecular target: cGMP-inhibited 3',5'-cyclic phosphodiesterase 3A (Homo sapiens, UniProt Q14432); format: functional
# cGMP-inhibited 3',5'-cyclic phosphodiesterase 3A, sequence (Q14432 whole entry): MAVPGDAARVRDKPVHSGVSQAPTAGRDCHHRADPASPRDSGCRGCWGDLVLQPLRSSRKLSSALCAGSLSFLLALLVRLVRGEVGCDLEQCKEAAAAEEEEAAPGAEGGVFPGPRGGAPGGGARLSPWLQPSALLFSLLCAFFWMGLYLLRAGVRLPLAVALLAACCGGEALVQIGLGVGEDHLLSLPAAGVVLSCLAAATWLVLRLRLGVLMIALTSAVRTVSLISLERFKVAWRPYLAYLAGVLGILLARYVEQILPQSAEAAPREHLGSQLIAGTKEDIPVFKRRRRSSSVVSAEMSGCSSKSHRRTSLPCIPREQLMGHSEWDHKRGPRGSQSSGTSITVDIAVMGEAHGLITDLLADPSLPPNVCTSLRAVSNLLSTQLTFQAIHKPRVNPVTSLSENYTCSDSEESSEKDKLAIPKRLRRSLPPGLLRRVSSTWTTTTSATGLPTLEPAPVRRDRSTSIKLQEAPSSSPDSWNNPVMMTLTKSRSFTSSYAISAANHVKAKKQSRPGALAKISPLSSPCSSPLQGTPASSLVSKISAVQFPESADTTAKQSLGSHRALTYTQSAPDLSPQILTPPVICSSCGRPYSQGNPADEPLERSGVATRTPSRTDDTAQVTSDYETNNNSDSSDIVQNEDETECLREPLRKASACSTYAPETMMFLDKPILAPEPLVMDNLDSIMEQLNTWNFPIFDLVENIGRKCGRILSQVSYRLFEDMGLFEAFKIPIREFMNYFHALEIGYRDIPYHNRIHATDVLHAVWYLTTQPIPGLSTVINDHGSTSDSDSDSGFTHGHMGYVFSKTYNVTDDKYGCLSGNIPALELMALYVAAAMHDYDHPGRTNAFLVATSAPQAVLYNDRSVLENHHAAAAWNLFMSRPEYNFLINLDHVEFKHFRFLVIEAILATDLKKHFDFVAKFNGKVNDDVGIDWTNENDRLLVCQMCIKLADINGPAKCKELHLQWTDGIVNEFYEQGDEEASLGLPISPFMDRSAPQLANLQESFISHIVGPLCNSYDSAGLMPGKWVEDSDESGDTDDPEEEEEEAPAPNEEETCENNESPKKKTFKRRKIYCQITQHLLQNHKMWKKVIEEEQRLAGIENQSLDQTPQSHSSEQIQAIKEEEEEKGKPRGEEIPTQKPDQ
# [5] = molecular target: 3',5'-cyclic-AMP phosphodiesterase 4A (Homo sapiens, UniProt P27815); format: functional
# [6] = molecular target: T3, Prostaglandin G/H synthase 1 (Homo sapiens, UniProt P23219); format: functional
# T3 sequence (P23219 whole entry): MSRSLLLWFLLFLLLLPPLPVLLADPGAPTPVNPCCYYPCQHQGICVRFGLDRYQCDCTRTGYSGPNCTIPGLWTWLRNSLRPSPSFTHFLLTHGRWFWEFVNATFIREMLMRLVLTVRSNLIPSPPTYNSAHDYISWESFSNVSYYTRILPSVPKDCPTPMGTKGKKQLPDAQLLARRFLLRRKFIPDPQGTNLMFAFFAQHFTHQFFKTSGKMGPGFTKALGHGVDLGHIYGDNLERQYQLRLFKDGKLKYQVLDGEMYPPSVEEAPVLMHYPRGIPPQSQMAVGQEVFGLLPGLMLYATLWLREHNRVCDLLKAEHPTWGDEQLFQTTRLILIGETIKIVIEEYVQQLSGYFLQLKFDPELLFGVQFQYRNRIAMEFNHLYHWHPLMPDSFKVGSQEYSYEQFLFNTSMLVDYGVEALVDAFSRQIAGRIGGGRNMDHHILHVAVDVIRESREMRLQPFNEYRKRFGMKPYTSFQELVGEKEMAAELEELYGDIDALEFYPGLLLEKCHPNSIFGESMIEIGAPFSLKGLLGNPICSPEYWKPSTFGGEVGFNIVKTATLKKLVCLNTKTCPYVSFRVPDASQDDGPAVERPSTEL
# [7] = molecular target: T3, Prostaglandin G/H synthase 1; format: functional; remark: listed apart in the source
# [8] = molecular target: Sodium-dependent noradrenaline transporter (Homo sapiens, UniProt P23975)
# Sodium-dependent noradrenaline transporter, sequence (P23975 whole entry): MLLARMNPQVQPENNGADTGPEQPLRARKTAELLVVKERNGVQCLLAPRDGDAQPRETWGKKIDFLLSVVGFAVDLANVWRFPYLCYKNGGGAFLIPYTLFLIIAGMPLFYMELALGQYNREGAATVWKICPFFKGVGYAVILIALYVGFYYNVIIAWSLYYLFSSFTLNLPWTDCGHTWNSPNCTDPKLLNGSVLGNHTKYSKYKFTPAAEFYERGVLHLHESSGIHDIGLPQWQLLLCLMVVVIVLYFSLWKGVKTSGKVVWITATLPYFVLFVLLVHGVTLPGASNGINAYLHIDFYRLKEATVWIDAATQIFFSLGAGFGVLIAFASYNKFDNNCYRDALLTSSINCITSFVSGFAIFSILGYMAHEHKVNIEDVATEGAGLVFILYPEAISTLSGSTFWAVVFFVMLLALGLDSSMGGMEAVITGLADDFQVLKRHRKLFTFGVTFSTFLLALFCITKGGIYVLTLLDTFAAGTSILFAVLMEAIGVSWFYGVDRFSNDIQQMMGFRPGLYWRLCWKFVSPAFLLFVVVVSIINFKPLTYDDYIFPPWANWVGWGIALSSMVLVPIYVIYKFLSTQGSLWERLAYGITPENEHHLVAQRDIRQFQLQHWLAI
# [9] = molecular target: Sodium-dependent dopamine transporter (Homo sapiens, UniProt Q01959)
# Sodium-dependent dopamine transporter, sequence (Q01959 whole entry): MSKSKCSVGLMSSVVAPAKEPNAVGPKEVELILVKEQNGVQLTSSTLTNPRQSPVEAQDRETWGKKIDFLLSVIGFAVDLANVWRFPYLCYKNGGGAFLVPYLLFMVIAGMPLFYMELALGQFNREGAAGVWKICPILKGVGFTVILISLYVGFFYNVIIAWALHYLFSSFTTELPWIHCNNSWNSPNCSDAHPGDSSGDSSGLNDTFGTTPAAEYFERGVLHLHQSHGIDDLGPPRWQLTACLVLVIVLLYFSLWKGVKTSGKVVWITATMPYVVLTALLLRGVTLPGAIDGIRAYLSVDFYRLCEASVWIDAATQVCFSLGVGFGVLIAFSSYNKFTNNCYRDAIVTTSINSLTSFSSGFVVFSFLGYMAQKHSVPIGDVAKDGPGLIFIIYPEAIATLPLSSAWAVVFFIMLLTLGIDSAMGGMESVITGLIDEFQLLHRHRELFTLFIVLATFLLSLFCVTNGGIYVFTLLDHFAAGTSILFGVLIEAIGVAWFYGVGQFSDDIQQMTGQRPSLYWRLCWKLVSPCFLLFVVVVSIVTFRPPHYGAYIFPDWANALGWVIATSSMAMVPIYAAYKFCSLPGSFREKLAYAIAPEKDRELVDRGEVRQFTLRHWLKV
# Thromboxane A2 receptor [10] = molecular target: T4, Thromboxane A2 receptor (Homo sapiens, UniProt P21731); format: functional, cell-based
# T4 sequence (P21731 whole entry): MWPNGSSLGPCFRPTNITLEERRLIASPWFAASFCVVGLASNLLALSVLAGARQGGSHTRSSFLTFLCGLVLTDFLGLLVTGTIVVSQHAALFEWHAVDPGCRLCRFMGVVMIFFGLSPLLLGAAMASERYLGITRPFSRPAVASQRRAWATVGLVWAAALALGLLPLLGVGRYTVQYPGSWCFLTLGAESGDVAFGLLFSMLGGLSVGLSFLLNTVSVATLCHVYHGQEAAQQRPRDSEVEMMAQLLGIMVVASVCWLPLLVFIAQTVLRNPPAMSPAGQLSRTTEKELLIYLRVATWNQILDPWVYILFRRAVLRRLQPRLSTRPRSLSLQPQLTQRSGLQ
# Thromboxane A2 receptor [11] = molecular target: T4, Thromboxane A2 receptor; format: functional, cell-based; remark: listed apart in the source
# [12] = molecular target: T5, Muscarinic acetylcholine receptor M2 (Homo sapiens, UniProt P08172)
# T5 sequence (P08172 whole entry): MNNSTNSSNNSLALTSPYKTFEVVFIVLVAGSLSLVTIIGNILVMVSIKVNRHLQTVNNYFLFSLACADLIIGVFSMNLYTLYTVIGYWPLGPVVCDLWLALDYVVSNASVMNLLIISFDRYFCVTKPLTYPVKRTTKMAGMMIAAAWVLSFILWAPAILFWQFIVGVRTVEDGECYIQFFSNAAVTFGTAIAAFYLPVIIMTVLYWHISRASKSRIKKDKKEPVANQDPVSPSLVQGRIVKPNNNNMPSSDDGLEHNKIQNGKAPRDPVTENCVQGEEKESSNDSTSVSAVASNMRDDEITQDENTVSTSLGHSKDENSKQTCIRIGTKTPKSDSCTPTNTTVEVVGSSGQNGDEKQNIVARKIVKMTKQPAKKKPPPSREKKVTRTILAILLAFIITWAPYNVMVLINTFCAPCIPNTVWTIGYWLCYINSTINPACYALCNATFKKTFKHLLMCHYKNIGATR
# [13] = molecular target: Voltage-gated inwardly rectifying potassium channel KCNH2 (Homo sapiens, UniProt Q12809); format: functional; settings: read-out: AC50
# Further: assay procedure not described here.
SMILES,AC50 (Acetylcholinesterase),AC50 (D(1A) dopamine receptor),AC50 (D(3) dopamine receptor),AC50 (Prothrombin),AC50 (Histamine H3 receptor),AC50 [1],AC50 [2],AC50 [3],AC50 (Mu-type opioid receptor),AC50 [4],AC50 [5],AC50 [6],AC50 [7],AC50 [8],AC50 [9],AC50 (Thromboxane A2 receptor [10]),AC50 (Thromboxane A2 receptor [11]),AC50 [12],AC50 [13]
CN1CCC[C@@H]1Cc1c[nH]c2ccc(CCS(=O)(=O)c3ccccc3)cc12,> 30 µM,27.7 µM,> 30 µM,> 30 µM,5.7 µM,0.0214 µM,> 10 µM,> 30 µM,8 µM,> 30 µM,> 30 µM,> 30 µM,> 30 µM,17.8 µM,26.6 µM,> 30 µM,> 30 µM,–,–
O=C(Nc1cccc2c(=O)cc(-c3nnn[nH]3)oc12)c1ccc(OCCCCc2ccccc2)cc1,> 30 µM,10.1 µM,4.45 µM,> 30 µM,> 30 µM,4.1 µM,> 30 µM,> 30 µM,4.64 µM,> 30 µM,8.21 µM,26.7 µM,> 30 µM,7.06 µM,8.24 µM,> 30 µM,> 30 µM,> 30 µM,–
CN(C)CCCN1C(=O)c2cc([N+](=O)[O-])ccc2Oc2ccccc21,> 30 µM,26 µM,15 µM,> 30 µM,> 30 µM,4.17 µM,> 30 µM,> 30 µM,> 30 µM,> 30 µM,> 30 µM,29.6 µM,> 30 µM,> 30 µM,> 30 µM,> 30 µM,> 30 µM,20.6 µM,> 30 µM
N[C@@H](CSSC[C@H](N)C(=O)O)C(=O)O [CYSTINE],> 30 µM,> 30 µM,> 30 µM,> 30 µM,> 30 µM,> 30 µM,> 30 µM,> 30 µM,> 30 µM,> 30 µM,> 30 µM,> 30 µM,> 30 µM,> 30 µM,> 30 µM,> 30 µM,> 30 µM,> 30 µM,–
C[C@]12CCC(=O)C=C1CC[C@@H]1[C@@H]2[C@@H](O)C[C@@]2(C)[C@H]1CC[C@]2(O)C(=O)COC(=O)CCC(=O)O [HYDROCORTISONE HEMISUCCINATE ANHYDROUS],> 30 µM,> 30 µM,–,> 30 µM,> 30 µM,> 30 µM,> 30 µM,> 30 µM,> 30 µM,> 30 µM,> 30 µM,> 30 µM,> 30 µM,> 30 µM,> 30 µM,> 30 µM,> 30 µM,> 30 µM,> 30 µM
CC(C)(N)C(=O)N[C@H](Cc1c[nH]c2ccccc12)C(=O)N[C@H](Cc1c[nH]c2ccccc12)NC=O [MACIMORELIN],> 30 µM,> 30 µM,> 30 µM,> 30 µM,> 30 µM,> 30 µM,> 30 µM,> 30 µM,0.75 µM,> 30 µM,> 30 µM,> 30 µM,> 30 µM,> 30 µM,> 30 µM,> 30 µM,> 30 µM,> 30 µM,–
"CCCCCOc1ccc(-c2cc(-c3ccc(C(=O)N[C@H]4C[C@@H](O)[C@@H](O)NC(=O)[C@@H]5[C@@H](O)[C@@H](C)CN5C(=O)[C@H]([C@H](O)CC(N)=O)NC(=O)[C@H]([C@H](O)[C@@H](O)c5ccc(O)c(OS(=O)(=O)O)c5)NC(=O)[C@@H]5C[C@@H](O)CN5C(=O)[C@H]([C@@H](C)O)NC4=O)cc3)no2)cc1 [MICAFUNGIN] (X1-[Orn(4R-OH,5R-OH)]T[Hyp][hTyr(3S-OH,4S-OH,3'-OSO3H)][Gln(3R-OH)][Pro(3S-OH,4S-Me)]; lactam 1-C)",> 30 µM,> 30 µM,> 30 µM,> 30 µM,> 30 µM,> 30 µM,> 30 µM,> 30 µM,7.68 µM,> 30 µM,29.5 µM,> 30 µM,> 30 µM,14.6 µM,21.7 µM,> 30 µM,7.12 µM,> 30 µM,–
CN1CCC[C@H]1c1cccnc1 [NICOTINE],> 30 µM,> 30 µM,> 30 µM,> 30 µM,> 30 µM,> 30 µM,> 30 µM,> 30 µM,> 30 µM,> 30 µM,> 30 µM,22 µM,> 30 µM,> 30 µM,> 30 µM,> 30 µM,> 30 µM,> 30 µM,–
C#C[C@]1(O)CC[C@H]2[C@@H]3CCC4=C(CCC(=O)C4)[C@H]3CC[C@@]21C [NORETHYNODREL],> 30 µM,> 30 µM,> 30 µM,> 30 µM,> 30 µM,> 30 µM,> 30 µM,> 30 µM,> 30 µM,23.4 µM,> 30 µM,11.8 µM,> 30 µM,> 30 µM,> 30 µM,> 30 µM,24.2 µM,> 30 µM,–
CN(C)C(=O)c1nc(CNC(=O)CN)n(-c2ccc(Cl)cc2C(=O)c2ccccc2Cl)n1 [RILMAZAFONE],> 30 µM,> 30 µM,> 30 µM,> 30 µM,> 30 µM,> 30 µM,> 30 µM,> 30 µM,> 30 µM,> 30 µM,> 30 µM,13.5 µM,> 30 µM,> 30 µM,> 30 µM,> 30 µM,> 30 µM,> 30 µM,–
